Measurements: PubChem BioAssay (NCI)
Several values for one entry are separate records, joined by “and”; a condition that tells them apart may be missing. Identical values can stand only once.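 Compound exposure: 48 hours, 5 concentrations, 96-well plates. Abbreviation: GI50, concentration required for 50% inhibition of growth. Definition used: TGI = concentration required for complete inhibition of growth.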

What was measured:
Experiment in all cases: DTP human tumour cell line panel, 48 h
DU-145 prostate = system: DU-145 prostate
HOP-92 NSCLC = system: HOP-92 NSCLC
HS 578T breast = system: HS 578T breast
M14 melanoma = system: M14 melanoma
NCI/ADR-RES ovarian = system: NCI/ADR-RES ovarian
OVCAR-3 ovarian = system: OVCAR-3 ovarian
SF-268 CNS = system: SF-268 CNS
SF-295 CNS = system: SF-295 CNS
SF-539 CNS = system: SF-539 CNS
SW-620 colon = system: SW-620 colon

SMILES | GI50 (DU-145 prostate) | TGI (DU-145 prostate) | GI50 (HOP-92 NSCLC) | TGI (HOP-92 NSCLC) | GI50 (HS 578T breast) | TGI (HS 578T breast) | GI50 (M14 melanoma) | TGI (M14 melanoma) | GI50 (NCI/ADR-RES ovarian) | TGI (NCI/ADR-RES ovarian) | GI50 (OVCAR-3 ovarian) | TGI (OVCAR-3 ovarian) | GI50 (SF-268 CNS) | TGI (SF-268 CNS) | GI50 (SF-295 CNS) | TGI (SF-295 CNS) | GI50 (SF-539 CNS) | TGI (SF-539 CNS) | GI50 (SW-620 colon) | TGI (SW-620 colon)
COc1ccc(OC)c2c1[nH]c(=O)c1c3ncccc3cn21 | 3.45 µM | 14.7 µM | 0.854 µM | 6.26 µM | 5.37 µM | > 100 µM | 4.49 µM | > 100 µM | 2.56 µM | > 100 µM | 4.54 µM | 18.4 µM | 4.21 µM | > 100 µM | 2.92 µM | > 100 µM | 3.96 µM | > 100 µM | 1.55 µM | 5.38 µM
O=C1/C(=C\c2ccccn2)c2ccccc2N1c1c(Cl)cccc1Cl | 1.94 µM | 3.95 µM | – | 6.28 µM | 3.92 µM | 37.4 µM | 1.78 µM | 3.72 µM | 2.51 µM | 6.95 µM | 1.66 µM | 3.25 µM | 2.96 µM | 9.54 µM | 1.96 µM | 5.72 µM | 2.44 µM | 6.33 µM | 1.89 µM | 3.69 µM
COc1cc(Nc2nc3ccccc3cc2C(=O)Nc2ccc(F)c(F)c2)cc(OC)c1OC | 4.25 µM | > 100 µM | 1.98 µM | 5.75 µM | 2.8 µM | 13.6 µM | 2.74 µM | – | 2.49 µM | 7.21 µM | 2.56 µM | 6.96 µM | 3.96 µM | > 100 µM | 2.85 µM | 10.2 µM | 3.65 µM | > 100 µM | 3.53 µM | > 100 µM
O=c1c(Cl)c(Cl)c(=O)c2sc3cc(Cl)ccc3[nH]c1=2 | – | > 100 µM | – | 33.4 µM | – | > 100 µM | – | > 100 µM | – | 20.1 µM | – | 30.7 µM | – | > 100 µM | – | > 100 µM | – | > 100 µM | – | 52.1 µM
Cc1cc(N2CCSCC2)nc(NC2CCCC(Nc3ccnc4cc(Cl)ccc34)C2)n1 (stereo not drawn) | 3.13 µM | 12.5 µM | 1.65 µM | 3.45 µM | 1.87 µM | 4.64 µM | 1.85 µM | 3.72 µM | 2.01 µM | 5.15 µM | 1.84 µM | 3.72 µM | 1.38 µM | 3.13 µM | 1.7 µM | 3.27 µM | 1.69 µM | 3.16 µM | 1.83 µM | 3.77 µM
O=Cc1cccc2c1Oc1c(cccc1C(=O)O)S2 | – | > 100 µM | – | > 100 µM | – | > 100 µM | – | > 100 µM | – | > 100 µM | – | > 100 µM | – | > 100 µM | – | > 100 µM | – | > 100 µM | – | > 100 µM
Cc1sc2c(c1C)C(c1ccc(Cl)cc1)=N[C@@H](CC(=O)OC(C)(C)C)c1nnc(C)n1-2 | 13.4 µM and 8.51 µM | 33.3 µM and 22.1 µM | 0.0319 µM and 0.0183 µM | 0.39 µM and 0.29 µM | 0.139 µM and 0.0567 µM | 18.4 µM and 18.1 µM | 0.436 µM and 0.772 µM | 19.6 µM and 21.7 µM | 0.506 µM and 0.396 µM | 24 µM and 20.9 µM | 1.24 µM and 0.498 µM | 18 µM and 15.6 µM | 11.5 µM and 4.73 µM | 26.2 µM and 21.8 µM | 0.365 µM and 0.182 µM | 18.2 µM and 15.5 µM | 0.639 µM and 0.462 µM | 19.4 µM and 17.9 µM | 10.9 µM and 4.09 µM | 28.1 µM and 22.9 µM
